# Assay results published in patent publication US4272437A, “Antibacterial agents, and 4-thio azetidinone intermediates” (priority 1979, dated 1981).
# Read-outs that look alike come from different tables or passages of the source.
# Legend:
# [1] = system: Str. pneumoniae A-9585; test: MIC, tube dilution, Streptococcus pneumoniae A9585; assay type: cell-based; conditions: Streptococcus pneumoniae, A9585, Str. pneumoniae A9585; overnight 37° C., Nutrient Broth; read-out: Minimum Inhibitory Concentration (M.I.C.)
# Description: (§1) Representative compounds of the present invention were subjected to in vitro antibiotic screening against a variety of microorganisms.
# [2] = system: Ent. cloacae A-9659; test: MIC, tube dilution, Enterobacter cloacae A9659; assay type: cell-based; conditions: overnight 37° C.; for MIC: Enterobacter cloacae, A9659, Enterobacter cloacae A9659, read-out: Minimum Inhibitory Concentration (M.I.C.); for Minimum Inhibitory Concentration (M.I.C.): Enterobacter cloacae A9659
# Description: as §1
# [3] = system: Staph. aureus (Pen-Res) A-9606; test: MIC, tube dilution, Staphylococcus aureus A9606 (Pen-Res); assay type: cell-based; conditions: Staphylococcus aureus, overnight 37° C.
# Description: as §1
# [4] = system: Staph. aureus A-9537; test: MIC, tube dilution, Staphylococcus aureus A9537; assay type: cell-based; conditions: Staphylococcus aureus, A9537, Staph. aureus A9537; overnight 37° C., Nutrient Broth; read-out: Minimum Inhibitory Concentration (M.I.C.)
# Description: as §1
# [5] = system: Staph. aureus A-9537 and 50% serum; test: MIC, tube dilution, Staph. aureus A9537 + 50% serum; assay type: cell-based, Staphylococcus aureus; conditions: overnight 37° C.; for MIC: Staphylococcus aureus, read-out: Minimum Inhibitory Concentration (M.I.C.)
# Description: as §1
# [6] = system: Ent. cloacae A-9656; test: MIC, tube dilution, Enterobacter cloacae A9656; assay type: cell-based; conditions: overnight 37° C., read-out: Minimum Inhibitory Concentration (M.I.C.)
# Description: as §1
# [7] = system: Providencia stuartii A21205; test: MIC, tube dilution, Providencia stuartii (Pr. rettgeri) A21205; assay type: cell-based; conditions: for MIC: Providencia stuartii
# Description: as §1
# [8] = system: Ps. aeruginosa A-9843A; test: MIC, tube dilution, Pseudomonas aeruginosa A9843A; assay type: cell-based; conditions: Pseudomonas aeruginosa, A9843A, read-out: Minimum Inhibitory Concentration (M.I.C.), Pseudomonas aeruginosa A9843A; overnight 37° C.
# Description: as §1
# [9] = system: Klebsiella species A20468; test: MIC, tube dilution, Klebsiella species A20468; assay type: cell-based; conditions: Klebsiella species (K. pneumoniae) A20468; overnight 37° C.; read-out: Minimum Inhibitory Concentration (M.I.C.)
# Description: as §1
# [10] = system: Str. pyogenes A-9604; test: MIC, tube dilution, Streptococcus pyogenes A9604; assay type: cell-based; conditions: Streptococcus pyogenes, A9604, Str. pyogenes A9604; overnight 37° C., Nutrient Broth; read-out: Minimum Inhibitory Concentration (M.I.C.)
# Description: as §1
# [11] = system: Pr. vulgaris A-9716; test: MIC, tube dilution, Proteus vulgaris / Proteus mirabilis A9716; assay type: cell-based, Proteus vulgaris (name changed to Proteus mirabilis); conditions: overnight 37° C.; for MIC: Proteus vulgaris
# Description: as §1
# [12] = system: E. coli A-20341-1; test: MIC, tube dilution, Escherichia coli A20341-1; assay type: cell-based
# Description: as §1
# [13] = system: Ser. marcescens A-20019; test: MIC, tube dilution, Serratia marcescens A20019; assay type: cell-based; conditions: overnight 37° C.; for MIC: Serratia marcescens, A20019, Serratia marcescens A20019, read-out: Minimum Inhibitory Concentration (M.I.C.); for Minimum Inhibitory Concentration (M.I.C.): Serratia marcescens A20019
# Description: as §1
# [14] = system: K. pneumoniae A-15130; test: MIC, tube dilution, Klebsiella pneumoniae A15130; assay type: cell-based; conditions: overnight 37° C.; for MIC: Klebsiella pneumoniae, A15130, K. pneumoniae A15130, read-out: Minimum Inhibitory Concentration (M.I.C.)
# Description: as §1
# [15] = system: E. coli A-15119; test: MIC, tube dilution, Escherichia coli A15119; assay type: cell-based; conditions: overnight 37° C.; for MIC: Escherichia coli, A15119, E. coli A15119, read-out: Minimum Inhibitory Concentration (M.I.C.)
# Description: as §1
# [16] = system: Staph. aureus (Meth-Res) A-15097; test: MIC, tube dilution, Staphylococcus aureus A15097 (Meth-Res); assay type: cell-based; conditions: Staphylococcus aureus, overnight 37° C.
# Description: as §1
# [17] = system: Ps. aeruginosa A-21213; test: MIC, tube dilution, Pseudomonas aeruginosa A21213; assay type: cell-based; conditions: overnight 37° C., read-out: Minimum Inhibitory Concentration (M.I.C.)
# Description: as §1
# [18] = system: Pr. morganii A-15153; test: MIC, tube dilution, Proteus morganii A15153; assay type: cell-based; conditions: Morganella morganii, A15153, Proteus morganii A15153; overnight 37° C.; read-out: Minimum Inhibitory Concentration (M.I.C.)
# Description: as §1
# [19] = system: Pr. mirabilis A-9900; test: MIC, tube dilution, Proteus mirabilis A9900; assay type: cell-based; conditions: overnight 37° C.; for MIC: Proteus mirabilis, A9900, Proteus mirabilis A9900, read-out: Minimum Inhibitory Concentration (M.I.C.)
# Description: as §1
# [20] = system: Str. faecalis A-20688; test: MIC, tube dilution, Streptococcus faecalis A20688; assay type: cell-based; conditions: Enterococcus faecalis, A20688, Str. faecalis A20688; overnight 37° C.; read-out: Minimum Inhibitory Concentration (M.I.C.)
# Description: as §1
# [21] = read-out: Minimum Inhibitory Concentration (M.I.C.), Staph. aureus A9606 (Pen-Res)
# [22] = A21205, read-out: Minimum Inhibitory Concentration (M.I.C.)
# [23] = A9716, read-out: Minimum Inhibitory Concentration (M.I.C.), Proteus vulgaris / Proteus mirabilis A9716
# [24] = Escherichia coli, A203411; E. coli A20341-1; overnight 37° C.; read-out: Minimum Inhibitory Concentration (M.I.C.)
# [25] = read-out: Minimum Inhibitory Concentration (M.I.C.), Staph. aureus A15097 (Meth-Res)
# [26] = Staph. aureus A9606 (Pen-Res), read-out: Minimum Inhibitory Concentration (M.I.C.)
# [27] = A21205, Providencia stuartii (Pr. rettgeri) A21205, overnight 37° C., read-out: Minimum Inhibitory Concentration (M.I.C.)
# [28] = A9716, Proteus vulgaris / Proteus mirabilis A9716, read-out: Minimum Inhibitory Concentration (M.I.C.)
# [29] = Escherichia coli, A203411, E. coli A20341-1; overnight 37° C.; read-out: Minimum Inhibitory Concentration (M.I.C.)
# [30] = Staph. aureus A15097 (Meth-Res), read-out: Minimum Inhibitory Concentration (M.I.C.)
# [31] = Enterobacter cloacae, A9656, Enterobacter cloacae A9656
SMILES,MIC [1] [µg/mL],MIC [2] [µg/mL],MIC [4] [µg/mL],MIC [5] [µg/mL],MIC ([6]; Enterobacter cloacae A9656) [µg/mL],MIC [8] [µg/mL],MIC [9] [µg/mL],MIC [10] [µg/mL],"MIC [12, 24] [µg/mL]",MIC [13] [µg/mL],MIC [14] [µg/mL],MIC [15] [µg/mL],"MIC [16, 25] [µg/mL]",MIC ([17]; Pseudomonas aeruginosa A21213) [µg/mL],MIC [18] [µg/mL],MIC [19] [µg/mL],MIC [20] [µg/mL],"MIC [3, 26] [µg/mL]","MIC [7, 27] [µg/mL]","MIC [11, 28] [µg/mL]",further results
"COC1=C(C(=O)[O-])N2C(=O)C[C@H]2S1.[Na+] [Preparation 17, Sodium 2-Methoxypenem-3-carboxylate]",> 2,> 63,> 2,> 32,> 63,> 63,> 63,> 2,> 63,> 63,> 63,> 63,> 63,> 63,> 63,> 63,> 63,,,,"MIC [3, 21]: > 63 µg/mL; MIC [7, 22]: > 63 µg/mL; MIC [11, 23]: > 63 µg/mL"
"CC1=C(C(=O)O)N2C(=O)C(C(C)(C)O)C2S1 (centres unmarked) [Example 3, Potassium 6-(2'-Hydroxyisopropyl)-2-methylpenem-3-carboxylate]",1,125,2,> 63,125,> 125,> 125,4,,63,125,63,,> 125,125,63,125,4,63,32,"MIC [12, 29]: 63 µg/mL; MIC [16, 30]: 32 µg/mL"
"CCCC1=C(C(=O)O)N2C(=O)C[C@H]2S1 [Preparation 15, 2-Propylpenem-3-carboxylic Acid]",1,> 125,1,> 63,125,> 125,> 125,8,> 125,63,> 125,16,125,> 125,63,16,63,16,16,16,"Minimum Inhibitory Concentration (M.I.C.) [2]: 125 µg/mL; MIC [6, 31]: 63 µg/mL; Minimum Inhibitory Concentration (M.I.C.) ([7]; Providencia stuartii (Pr. rettgeri) A21205, overnight 37° C.): 32 µg/mL; Minimum Inhibitory Concentration (M.I.C.) [13]: 125 µg/mL"
"CCC1=C(C(=O)O)N2C(=O)C[C@H]2S1 [Preparation 10, 2-Ethylpenem-3-carboxylic Acid]",0.03,16,0.13,16,,> 125,> 125,0.5,125,4,8,4,,125,8,4,32,0.5,4,4,"MIC [6, 31]: 16 µg/mL; MIC [16, 30]: 0.5 µg/mL"
"O=C([O-])C1=C(COCc2ccccc2)S[C@@H]2CC(=O)N12.[Na+] [Preparation 14 (Na^+ Salt), Sodium 2-(Benzyloxymethyl)penem-3-carboxylate]",0.03,32,0.5,32,125,> 125,> 125,0.06,> 125,63,125,16,> 125,> 125,16,2,32,,,,"Minimum Inhibitory Concentration (M.I.C.) [2]: 63 µg/mL; MIC [3, 21]: 32 µg/mL; Minimum Inhibitory Concentration (M.I.C.) [5]: 63 µg/mL; MIC [7, 22]: 63 µg/mL; Minimum Inhibitory Concentration (M.I.C.) ([11]; Proteus vulgaris / Proteus mirabilis A9716): 2 µg/mL; MIC [11, 23]: 4 µg/mL; Minimum Inhibitory Concentration (M.I.C.) [13]: 125 µg/mL; Minimum Inhibitory Concentration (M.I.C.) ([14]; K. pneumoniae A15130): > 125 µg/mL; Minimum Inhibitory Concentration (M.I.C.) ([15]; E. coli A15119): 8 µg/mL; Minimum Inhibitory Concentration (M.I.C.) ([19]; Proteus mirabilis A9900): 1 µg/mL"
"O=C(O)C1=C(c2ccco2)SC2CC(=O)N12 (centres unmarked) [Preparation 13, 2-(2'-Furyl)penem-3-carboxylic Acid]",1,63,1,> 32,,> 63,> 63,1,,16,32,8,,,32,4,32,8,4,4,"MIC [6, 31]: 63 µg/mL; MIC [12, 29]: > 63 µg/mL; MIC [16, 30]: 16 µg/mL; MIC ([17]; Pseudomonas aeruginosa, A21213, Pseudomonas aeruginosa A21213): > 63 µg/mL"
